In patent publication US12667546B2, “Methods for manipulating cell state transitions in cancer” (AGENCY FOR SCIENCE, TECHNOLOGY AND RESEARCH, priority 2018, dated 2026):
Counter-ions that a name gives are not always drawn. Like-named read-outs stand apart in the source and are kept apart here.

How the values were obtained:
[1] = tested on: NAMEC8-SERPINE1prom-Luc cells; assay: Renilla-luciferase (constitutive CMV promoter) readout for cell numbers; format: cell-based, human; details: for viability at 10 µM: Homo sapiens, 72 h, read-out: % Avr Renilla from DMSO
[2] = tested on: SERPINE1prom-Luc reporter in NAMEC8 cells; assay: Dual-Glo luciferase assay of SERPINE1prom-Luc reporter (FF/Ren); format: cell-based, human; details: for activity at 10 µM: Homo sapiens, 72 h, read-out: Avr FF/Renilla from DMSO; for dose-dependent change of SERPINE1 promoter activity: dose response (metabolic hits 10 nM to 2 μM; epigenetic hits six concentrations)
From the text: pGreenFire1-mCMV was cut using ClaI and SpeI and gel purified. Promoter sequences of genes Zeb1, Serpine1, CDH1, CD24, CD44, CD166 were amplified from human genomic DNA with pre-designed primers containing ClaI and SpeI restriction cut sites using AccuPrime Taq DNA Polymerase (Thermo Fisher Scientific). PCR products were then digested with restriction enzymes and gel-purified. Vector was ligated with PCR insert using Quick Ligase (Fermentas) and transformed into Stb12 competent cells. Colonies were picked and inoculated into TB media with ampicillin. Plasmids were then isolated using a plasmid miniprep kit (Qiagen) and sent for sequencing (1 stBASE Laboratories). After verifying the plasmid sequence, transfection into HEK293 cells was carried out to generate lentivirus. Transfection was carried out using FuGENE 6 (Promega). Viral supernatant was harvested at 24 h and 48 h. NAMEC8 cells were then infected twice with virus using polybrene ([…]) and checked for good transduction efficiency using Dual-Glo Luciferase System (Promega).
Stock plates of compound libraries were kindly prepared by GIS CHiP facility at 1 mM concentration in DMSO. NAMEC8-SERPINE1prom-Luc cells were seeded into 384 well plates at a density of 700 cells/well in a total volume of 50 μl, using an automated dispensing system (BioTek). 0.5 μl of compounds were then added to the wells the following day using a robotic pin transfer with a Bravo workstation (Agilent Technologies). Cells were then grown for 3 days and promoter-luciferase activity was measured using the Dual-Glo Luciferase System (Promega).
Assay was carried out according to manufacturer's instructions. To measure luciferase activity in 384 well plates, media was first removed from the plate. Firefly luciferase activity was determined by adding 30 μl Dual-Glo Luciferase substrate (Promega) to the wells and incubated for 10 min before measuring luminescence using a TECAN M1000 Pro plate reader. 15 μl Dual-Glo Stop & Glo substrate was then added to the wells, incubated for 10 min and measuring luminescence on the plate reader to determine Renilla luciferase activity. Promoter luciferase activity is then calculated by taking Firefly luciferase over Renilla luciferase.

[3] = primary screen, Renilla as readout for cell numbers, relative to DMSO
[4] = primary screen, NAMEC8-SERPINE1prom-Luc cells grown 3 days with compound, relative to DMSO
[5] = primary screen, […], relative to DMSO

Compound: N#CC(=C(/N)Sc1ccccc1N)/C(C#N)=C(\N)Sc1ccccc1N [U0126]
- viability at 10 µM [1]: 102%
- activity at 10 µM [2]: 45%

Compound: Cc1cccc(-c2nn(C(=S)Nc3ccccc3)cc2-c2ccnc3ccccc23)n1 [A83-01]
- downregulation of SERPINE1prom-Luc ([2]; positive control treatment): at least 50%

Compound: CN([C@@H](Cc1ccc(OS(=O)(=O)c2cccc3cnccc23)cc1)C(=O)N1CCN(c2ccccc2)CC1)S(=O)(=O)c1cccc2cnccc12 [KN-62]
- % Avr Renilla from DMSO [1, 3]: 67.80%
- Avr FF/Renilla from DMSO [2, 4]: 0.43

Compound: CS(=O)(=O)N1CCc2c(-c3cnc(N)nc3)nc(N3CCOCC3)nc21 [CH5132799]
- viability at 10 µM [1, 3]: 50.6%
- activity at 10 µM [2, 4]: 71%

Compound: CC1(C)CNc2cc(NC(=O)c3cccnc3NCc3ccncc3)ccc21 [Motesanib Diphosphate (AMG-706), Motesanib Diphosphate]
- viability at 10 µM [1, 3]: 50.9%
- activity at 10 µM [2, 4]: 70%

Compound: CCCCc1oc2ccccc2c1C(=O)c1cc(I)c(OCCN(CC)CC)c(I)c1 [Amiodarone hydrochloride]
- viability at 10 µM [1, 3]: 86.9%
- activity at 10 µM [2, 4]: 59%

Compound: CCCCC[C@H](O)/C=C/[C@H]1C(=O)C[C@H](O)[C@@H]1C/C=C\CCCC(=O)NCCO [Prostaglandin D2 Ethanolamide]
- % Avr Renilla from DMSO [1, 3]: 65.62%
- Avr FF/Renilla from DMSO [2, 4]: 0.55

Compound: CCCCC/C=C\C/C=C\C/C=C\C/C=C\CCCC(=O)NCc1ccoc1 [UCM707]
- % Avr Renilla from DMSO [1, 3]: 88.05%
- Avr FF/Renilla from DMSO [2, 5]: 0.57

Compound: O=C(Nc1ccc2[nH]ncc2c1)C1CCC1 [Rhodblock 6]
- % Avr Renilla from DMSO [1, 3]: 89.97%
- Avr FF/Renilla from DMSO [2, 4]: 0.87

Compound: CC[C@H](CO)Nc1nc(NCc2ccccc2)c2ncn(C(C)C)c2n1 [Roscovitine (Seliciclib, CYC202), Roscovitine]
- viability at 10 µM [1, 3]: 53.7%
- activity at 10 µM [2]: 63%

Compound: CCCCCC(O)/C=C/C1C(=O)CC(O)C1C/C=C\CCCC(=O)OCC(O)CO (stereo not shown) [Prostaglandin D2-1-glyceryl ester]
- % Avr Renilla from DMSO [1, 3]: 58.41%
- Avr FF/Renilla from DMSO [2, 4]: 0.59

Compound: CC(=O)Nc1nc(C)c(-c2ccc(Cl)c(S(=O)(=O)NCCO)c2)s1 [PIK-93]
- % Avr Renilla from DMSO [1, 3]: 75.51%
- Avr FF/Renilla from DMSO [2, 5]: 0.72

Compound: O=[N+]([O-])c1ccc(CNc2nc(NCc3cccc(C(F)(F)F)c3)nc3nc[nH]c23)cc1 [TNP]
- % Avr Renilla from DMSO [1]: 80.47%
- Avr FF/Renilla from DMSO [2]: 0.88

Compound: C=CCc1ccccc1OCC(O)CNC(C)C (stereo not shown) [Alprenolol hydrochloride]
- viability at 10 µM [1, 3]: 90.2%
- activity at 10 µM [2, 4]: 80%

Compound: CC1(C(=O)O)C2CCC(O2)C1(C)C(=O)O (stereo not shown) [Cantharidic Acid]
- viability at 10 µM [1, 3]: 74.6%
- activity at 10 µM [2, 5]: 40%

Compound: CCO.N#CC(=C(/N)Sc1ccccc1N)/C(C#N)=C(\N)Sc1ccccc1N [U0126-EtOH]
- % Avr Renilla from DMSO [1, 3]: 76.21%
- Avr FF/Renilla from DMSO [2, 4]: 0.62

Compound: CCOC(=O)c1ccc(C#Cc2ccc3c(c2)C(C)(C)CCS3)nc1 [Tazarotene]
- viability at 10 µM [1, 3]: 67%
- activity at 10 µM [2, 4]: 59%

Compound: CCSC(=N)Nc1ccc(C(F)(F)F)cc1 [S-ethyl N-[4-(trifluoromethyl)phenyl] Isothiourea (hydrochloride)]
- viability at 10 µM [1, 3]: 76.8%
- activity at 10 µM [2, 4]: 59%

Compound: CC(=O)O[C@@]12C[C@@H](C)[C@@]3(O)[C@@H](C=C(CO)C[C@]4(O)C(=O)C(C)=C[C@@H]34)[C@@H]1C2(C)C [Prostratin]
- viability at 10 µM [1, 3]: 146%
- activity at 10 µM [2, 4]: 55%

Compound: CNC(=O)c1ccc(C)c(-n2c(C)cc(OCc3ccc(F)cc3F)c(Br)c2=O)c1 [PH-797804]
- viability at 10 µM [1, 3]: 53%
- activity at 10 µM [2, 4]: 67%

Compound: CCCCC[C@H](O)/C=C/[C@H]1[C@H](O)CC(=O)[C@@H]1CC(=O)CCCCC(=O)O [6-keto Prostaglandin E1]
- % Avr Renilla from DMSO [1, 3]: 79.67%
- Avr FF/Renilla from DMSO [2, 4]: 0.55

Compound: COc1cccc(Nc2c(C(N)=O)cnc3c(C)cc(S(=O)(=O)c4cccc(C(=O)N(C)C)c4)cc23)c1 [GSK256066]
- dose-dependent change of SERPINE1 promoter activity [2]: dose dependent decrease in SERPINE1 promoter activity

Compound: O=C(Nc1cccc(C(F)(F)F)c1)Nc1cc(S(=O)(=O)NC2CC2)ccc1-c1ccsc1 [AGI-6780]
- dose-dependent change of SERPINE1 promoter activity [2]: dose dependent decrease in SERPINE1 promoter activity
